Laboratory results: patent publication US8110655B2, “Method to promote hair growth and/or delay or treat hair loss by administering a TGF-β antagonist or inhibitor” (Auxagen, Inc., priority 2006, dated 2012)
Entries after “also recorded” stand apart in the source; their conditions may differ.

How the values were obtained:
[1] = tested on: mink lung epithelial cells; conditions: mink lung epithelial cells and other cell types; U.S. Pat. No. 6,500,920; cited from earlier work
PAI-1 = conditions: mink lung epithelial cells and other cell types; U.S. Pat. No. 6,500,920; cited from earlier work
[2] = tested on: TGF-β receptors in mink lung epithelial cells; conditions: earlier finding of the inventors (U.S. Pat. No. 6,500,920); cited from earlier work
TGF-β = TGF-β antagonist activity of C44S/C48S variants (test not specified); conditions: C44S/C48S versions versus parent peptides
From the text: In another embodiment of the invention variants of peptantagonists β3^25 (41-65) (SEQ ID NO: 4), β2^25 (41-65) (SEQ ID NO: 5), and β3^25 (41-65) (SEQ ID NO: 6), are provided in which cysteine-44 and cysteine-48 were replaced by serine residues.

[3] = Stability in solution / in IntraSite gel during storage; conditions: C44S/C48S versions versus parent peptides
Protocol: One milliliter of sterile 3 mM each of TGF-β peptantagonist 6-E-β1^25 (SEQ ID NO: 7), in phosphate-buffered saline (PBS) or 1 ml of sterile PBS (vehicle) was vigorously mixed with 3 ml of IntraSite gel using two 10 ml syringes connected with a three-way connector.

[4] = tested on: full-thickness burn wounds on pig skin; assay: Hair growth in full-thickness pig skin burn wound model; type: in vivo, pig (Yorkshire strain); conditions: for hair growth, % of the original pre-burn area: topical, full-thickness burn, postburn day 30
From the text: TGF-β peptantagonists with amino acid sequences corresponding to residues 41-65 of TGF-β1 (SEQ ID NO: 8) and TGF-β2 (SEQ ID NO: 9), and TGF-β peptantagonist 6-β1^25 (SEQ ID NO: 7), which have additional 6 glutamate residues at the N-termini were synthesized and purified as described previously. Sterile IntraSite gel was obtained from Smith and Nephew Medical, Ltd. (UK) and mixed with TGF-β peptantagonists in phosphate-buffered saline at a ratio of 3:1 (v/v).
Female pigs (Yorkshire strain, house inbred and specific pathogen-free) weighing 20-25 kg were used in the experiments. The pigs were housed in individual rooms. They were fed standard laboratory chow and water ad libitum. All study protocols were reviewed and approved by the respective institutional animal care committees.
Four pigs weighing 20-25 kg were anesthetized by intramuscular injection of ketamine (5 mg/kg), strenil (cazaporonum) (20 mg/kg), and atropine ([…]). Six uniform burn wounds (110° C., 30 s) were then made symmetrically on the back of each pig using a modified soldering iron with a flat contact area of 20 cm^2. […] After wounding, IntraSite gels containing 6-E-β1^25 and buffer vehicle (as control) were applied to the pig burn wounds. All wounds were dressed with paraffin gauze. TGF-β peptantagonist gel or control gel was applied to the wounds every 2 days for the first 10 days and twice a week for the next 30 days. All wounds were cleaned and measured before each application of the IntraSite gel.
Hair growth was assessed by measuring hair number and hair length in the burn lesion and around the lesion area. Hair growth was monitored every 2 days for the first 10 days and twice a week for 30 more days. Hair growth expressed as a percent of the original wound size was calculated.
The pig model is commonly used in skin injury (e.g., burn) experiments because porcine skin is anatomically very similar to human skin. It was used to determine the ability of 6-E-β1^25 peptantagonist to rescue or restore hair follicles and to promote hair growth in a standardized burn injury. Four pigs weighing 20-25 kg were anesthetized by intramuscular injection of ketamine (5 mg/kg). A soldering iron with a flat contact area of ˜20 cm^2 was used to generate full-thickness burn wounds (110° C., 30 s) at standard sites on the skin of the back. Six thermal burns (three on each side) were created on each pig. After wounding, two lesions were treated with a thin layer of IntraSite gel containing 6-E-β1^25 (SEQ ID NO: 7) (0.15 and 0.6 mM); two received gel alone and two received no topical applications. All wounds were then bandaged and protected from potential contact irritation with a fixed frame. 6-E-β1^25 (SEQ ID NO: 7) and vehicle gels were applied every 2 days for the first 10 days and twice a week for the next 30 days, at which time hair growth was measured and photographed. Each animal served as its own control. […] At 0.15 and 0.6 mM, 6-E-β1^25 (SEQ ID NO: 7) promoted hair growth of 5-10 and 30-40% of the original pre-burn area, respectively.

Substance	block of TGF-β-induced growth inhibition [1]	block of TGF-β-induced expression of PAI-1 (PAI-1)	inhibition of binding of radiolabeled TGF-β1, TGF-β2 and TGF-β3 to TGF-β receptors [2]	TGF-β antagonist activity compared with the cysteine-containing peptantagonists (TGF-β)	also measured
β2^25 (41-65): chemically synthesized peptide corresponding to the 41st to 65th amino acid residues of TGF-β2 (ANFCAGACPYLWSSDTQHSRVLSLY; listed as Homo Sapiens)	block	block	inhibit	–	–
β3^25 C44S/C48S: variant of β3^25 (41-65) in which cysteine-44 and cysteine-48 were replaced by serine residues (ANFSSGPSPYLRSADTTHSTVLGLY; listed as Homo Sapiens)	–	–	–	the same TGF-β antagonist activity	stability in solution during storage [3]: better stability in solution during storage
β2^25 C44S/C48S: variant of β2^25 (41-65) in which cysteine-44 and cysteine-48 were replaced by serine residues (ANFSAGASPYLWSSDTQHSRVLSLY; listed as Homo Sapiens)	–	–	–	the same TGF-β antagonist activity	stability in solution during storage [3]: better stability in solution during storage
NH2-ANFSLGPSPYIWSLDTQYSKVLALY-COOH (H-ANFSLGPSPYIWSLDTQYSKVLALY-OH; listed as Homo Sapiens) [β1^25 C44S/C48S, variant of β1^25 (41-65) in which cysteine-44 and cysteine-48 were replaced by serine residues]	–	–	–	the same TGF-β antagonist activity	–
β1^25 (41-65): chemically synthesized peptide corresponding to the 41st to 65th amino acid residues of TGF-β1	block	block	inhibit	–	–
β3^25 (41-65): chemically synthesized peptide corresponding to the 41st to 65th amino acid residues of TGF-β3 (ANFCSGPCPYLRSADTTHSTVLGLY; listed as Homo Sapiens)	block	block	inhibit	–	–
6-E-β1^25: β1^25 C44S/C48S derivitized with 6 glutamate at the N-terminus (EEEEEEANFSLGPSPYIWSLDTQYSKVLALY; six N-terminal glutamates; listed as Homo Sapiens)	–	–	–	–	hair growth, % of the original pre-burn area ([4]; 0.15 mM in IntraSite gel): 5-10%; hair growth, % of the original pre-burn area ([4]; 0.6 mM in IntraSite gel): 30-40%; promotion of hair growth (effective concentrations, dose dependence) ([4]; 0.15 and 0.6 mM in IntraSite gel): effective in promoting hair growth; also recorded: promote hair growth in a dose-dependent manner; hair growth in the area surrounding the burn wound ([4]; 0.15 and 0.6 mM, topical gel): promoted hair growth in the area surrounding the burn wound; re-epithelialization and hair growth of treated wounds ([4]; postburn day 30, topical gel): exhibited re-epithelialization and hair growth
